{"source": "patent US20250205191A1", "about": "“R(-)-MDMA COMPOSITIONS AND METHODS OF TREATMENT” (EmpathBio, Inc., priority 2023, published 2025)", "key": {"[1]": {"system": "rat embryonic cortical neurons", "assay": "In vitro rat cortical neurite outgrowth", "type": "cell-based", "conditions": "3 days, vs vehicle control", "experimental": "The experiment included a 0.1% sterile water vehicle negative control condition and a 250 nM donepezil positive control condition, and the number of neurites per neuron, total neurite length per neuron and branchpoints per neuron from n=12 wells per treatment were compared to the vehicle control condition."}, "male C57BL/6J mice": {"system": "male C57BL/6J mice", "assay": "Mouse head twitch response (HTR)", "type": "in vivo", "conditions": "3 mg/kg IP, 30 min, vs vehicle control group", "experimental": "Mouse Head Twitch (HTR) is a side-to-side rotational head movement in rodents that is widely employed as a behavioral measure of 5-HT2A receptor activation (Halberstadt and Geyer 2013). […] Animals with head mounted magnets were dosed intraperitoneally and immediately tested for HTR for 30 min using an automated magnetometer detection system (Halberstadt and Geyer 2013)."}, "healthy volunteers [2]": {"system": "healthy volunteers", "assay": "Phase 1 clinical study, safety and tolerability", "type": "in vivo, human", "source_text": "The primary endpoints assessed the safety, tolerability, pharmacokinetics (PK), and exploratory pharmacodynamic (PD) observations. Treatment-related adverse events (AEs) were in line with expectations (e.g., nausea at 29.2%, headache at 16.7%) and generally dose dependent."}, "healthy volunteers [3]": {"system": "healthy volunteers", "assay": "Phase 1 5-Dimensions-Altered States of Consciousness (5D-ASC)", "type": "in vivo, human", "conditions": "75-225 mg oral", "source_text": "The 5D-ASC measures the acute drug effects using 5 primary dimensions and 11 lower-order scales to assess alterations in mood, perception and experience of self in relation to environment and thought disorder. The 5 dimensions include oceanic boundlessness, anxious ego dissolution, visionary restructuralization, auditory alterations, and reduction of vigilance.\nA notable result illustrated by the ASC data was the reporting ratio of feelings of Oceanic Boundlessness (OB) relative to Dread of Ego Dissolution (DED). The ratio can be a useful metric as they are inversely correlated with psychedelic-mediated antidepressant efficacy (OB positively correlated, DED negatively correlated). […] The OB-DED ratio was consistent with the 11-Dimensional Altered States of Consciousness (11D-ASC)."}, "healthy volunteers [4]": {"system": "healthy volunteers", "assay": "Facial Emotion Recognition Test (FERT)", "type": "in vivo, human"}, "healthy volunteers [5]": {"system": "healthy volunteers", "assay": "Phase 1 Self-Compassion Scale (SCS)", "type": "in vivo, human", "source_text": "Self-compassion is defined as being open to and moved by one's own suffering, experiencing feelings of caring and kindness toward oneself, taking an understanding, non-judgmental attitude toward one's inadequacies and failures, and recognizing that one's own experience is part of the common human experience (Neff, K. D., 2003. The development and validation of a scale to measure self-compassion. Self and Identity, 2, 223-250). The Self-Compassion Scale is an assessment tool designed to measure three core components of self-compassion: self-kindness, common humanity and mindfulness. (SCS; Neff, K. D., 2011. Self-compassion: Stop beating yourself up and leave insecurity behind. New York, NY: Harper Collins) The total self-compassion score is the total of the scores of the sub-items: self-kindness, self-judgement (reversed), common humanity, isolation (reversed), mindfulness and over-identification (reversed)."}, "[6]": {"assay": "Phase 1 clinical study, plasma pharmacokinetics", "conditions": "for AUC0-t / Cmax / t1/2: mean (SD); for Tmax: median (minimum, maximum)"}, "[7]": {"conditions": "single oral 75-225 mg, healthy participants"}, "[8]": {"conditions": "plasma analyte after oral 125 mg R(−)-MDMA, Day 9"}, "[9]": {"conditions": "plasma analyte after single oral 75 mg R(−)-MDMA, Day 1"}, "[10]": {"conditions": "plasma analyte after single oral 125 mg R(−)-MDMA, Day 1"}, "[11]": {"conditions": "plasma analyte after single oral 175 mg R(−)-MDMA, Day 1"}, "[12]": {"conditions": "plasma analyte after single oral 225 mg R(−)-MDMA, Day 1"}}}
{"smiles": "CN[C@H](C)Cc1ccc2c(c1)OCO2", "note": "[R(−)-MDMA, R(−)-3,4-methylenedioxymethamphetamine]", "values": [{"measurement": "number of neurites per neuron", "setting": "[1]; 0.0001 μM", "value": "modest yet significant increases"}, {"measurement": "branchpoints per neuron", "setting": "[1]; 10 μM", "value": "modest yet significant increases"}, {"measurement": "number of neurites per neuron", "setting": "[1]; 10 μM", "value": "modest yet significant increases"}, {"measurement": "total neurite length per neuron", "setting": "[1]; 10 μM", "value": "modest yet significant increases"}, {"measurement": "head twitch response (HTR)", "setting": "male C57BL/6J mice", "value": "significantly increased"}, {"measurement": "bruxism", "setting": "healthy volunteers [2]; highest dose (225 mg)", "value": "observed in a single subject"}, {"measurement": "peak body temperatures", "setting": "healthy volunteers [2]; single oral 75-225 mg", "value": "within the normal range"}, {"measurement": "serious or severe AEs", "setting": "healthy volunteers [2]; single oral 75-225 mg", "value": "no serious or severe AEs were observed"}, {"measurement": "study discontinuations", "setting": "healthy volunteers [2]; single oral 75-225 mg", "value": "no study discontinuations"}, {"measurement": "treatment-related adverse event: headache", "setting": "healthy volunteers [2]; [7]", "value": 16.7, "unit": "%"}, {"measurement": "treatment-related adverse event: nausea", "setting": "healthy volunteers [2]; [7]", "value": 29.2, "unit": "%"}, {"measurement": "blood pressure and heart rate", "setting": "healthy volunteers [2]; single oral 75-225 mg, limited dose dependency", "value": "Non-clinically significant increases"}, {"measurement": "5D-ASC sub-components and total score", "setting": "healthy volunteers [3]", "value": "dose-dependent increase in all measured sub-components and in the total score"}, {"measurement": "reduction in the recognition of angry (threatening) faces", "setting": "healthy volunteers [4]; 75 mg", "value": 13.2, "unit": "%"}, {"measurement": "reduction in the recognition of angry (threatening) faces", "setting": "healthy volunteers [4]; 125 mg", "value": 12.3, "unit": "%"}, {"measurement": "reduction in the recognition of angry (threatening) faces", "setting": "healthy volunteers [4]; 175 mg", "value": 8.8, "unit": "%"}, {"measurement": "misclassifications to happy faces, change from baseline (mean)", "setting": "healthy volunteers [4]; 225 mg", "value": "+1.16"}, {"measurement": "reduction in the recognition of angry (threatening) faces", "setting": "healthy volunteers [4]; 225 mg", "value": 12.4, "unit": "%"}, {"measurement": "SCS self-kindness score, mean", "setting": "healthy volunteers [5]; 225 mg group, 1 week of follow-up", "value": 4.1}, {"measurement": "SCS self-kindness score, mean at baseline", "setting": "healthy volunteers [5]; 225 mg group, before dosing", "value": 3.9}, {"measurement": "self-compassion (self-kindness) scores", "setting": "healthy volunteers [5]; higher doses, 1 week of follow-up", "value": "significantly increased"}, {"measurement": "food effect", "setting": "[6]; 125 mg fasted vs fed", "value": "No food effect"}, {"measurement": "mean plasma concentration at final PK assessments", "setting": "[6]; 30 hours postdose", "value": "remained above the lower limit of quantitation"}, {"measurement": "AUC0-t", "setting": "[6]; [8]", "value": "7229.6028 (1863.6711) h · ng/mL"}, {"measurement": "Cmax", "setting": "[6]; [8]", "value": "455.4850 (65.0461) ng/mL"}, {"measurement": "t1/2", "setting": "[6]; [8]", "value": "13.3444 (3.5309) hr"}, {"measurement": "Tmax", "setting": "[6]; [8]", "value": "2.758 (2.08, 4.02) hr"}, {"measurement": "AUC0-t", "setting": "[6]; [9]", "value": "3976.7452 (1350.4178) h · ng/mL"}, {"measurement": "Cmax", "setting": "[6]; [9]", "value": "275.8217 (90.7390) ng/mL"}, {"measurement": "t1/2", "setting": "[6]; [9]", "value": "9.2622 (2.5227) hr"}, {"measurement": "Tmax", "setting": "[6]; [9]", "value": "3.000 (2.02, 3.00) hr"}, {"measurement": "AUC0-t", "setting": "[6]; [10]", "value": "7135.8809 (1245.2963) h · ng/mL"}, {"measurement": "Cmax", "setting": "[6]; [10]", "value": "425.2550 (62.4569) ng/mL"}, {"measurement": "t1/2", "setting": "[6]; [10]", "value": "11.8615 (1.9947) hr"}, {"measurement": "Tmax", "setting": "[6]; [10]", "value": "3.517 (1.50, 4.02) hr"}, {"measurement": "AUC0-t", "setting": "[6]; [11]", "value": "10007.8882 (2324.8851) h · ng/mL"}, {"measurement": "Cmax", "setting": "[6]; [11]", "value": "617.3440 (158.9596) ng/mL"}, {"measurement": "t1/2", "setting": "[6]; [11]", "value": "12.2009 (1.4988) hr"}, {"measurement": "Tmax", "setting": "[6]; [11]", "value": "4.000 (3.00, 6.02) hr"}, {"measurement": "AUC0-t", "setting": "[6]; [12]", "value": "14453.1811 (3684.7488) h · ng/mL"}, {"measurement": "Cmax", "setting": "[6]; [12]", "value": "828.6450 (213.1377) ng/mL"}, {"measurement": "t1/2", "setting": "[6]; [12]", "value": "14.0772 (3.2340) hr"}, {"measurement": "Tmax", "setting": "[6]; [12]", "value": "5.000 (3.00, 6.02) hr"}]}
